In patent publication US9353089B2, “Compositions and methods for the treatment of malaria” (Saint Louis University, priority 2013, dated 2016):
Read-outs that look alike come from different tables or passages of the source. Non-standard residues stand in square brackets, D forms with d. Residues, ends and D or L forms follow the SMILES beside them. *: point of attachment. Sta = CC(C)C[C@H](N)[C@@H](O)CC(=O)O; Isovaleryl = CC(C)CC(=O)*

Columns and labels:
[1] = system: Plasmodium chabaudi ASS and ASCQ strains; test: In vivo antimalarial efficacy 4-day suppressive test; details: NIH mice, 4.5 mpk orally once daily for four days, Day 4 postinoculation
Experimental: Briefly, NIH mice (n=8 per group) were inoculated i.p. with 2×10^7 parasitized (Plasmodium chabaudi ASS or ASCQ) red blood cells. […] Groups (n=6) including a vehicle control and chloroquine (CQ) as a reference drug were included. Parasitemia levels were determined on the day following the last treatment (Day 4).

[2] = system: Plasmodium falciparum 3D7 (CQ-sensitive); test: In vitro antimalarial assay (malaria SYBR Green I-based fluorescence, MSF), 3D7; format: cell-based
How it was run: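 Asynchronous P. falciparum 3D7 cultures (0.5% parasitemia, 2% hematocrit) were exposed to serially diluted compounds, in quadruplicate. Growth was then quantified by SYBR Green I fluorescence after adding lysis buffer containing 0.2 μL/mL dye.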

[3] = system: Plasmodium falciparum Dd2 (multi-drug resistant); test: In vitro antimalarial assay (malaria SYBR Green I-based fluorescence, MSF), Dd2; format: cell-based; details: DD2, read-out: Dd2 IC50 (μM)
Experimental: In vitro antimalarial activity was determined by a malaria SYBR Green I-based fluorescence (MSF) method described previously by Smilkstein et al. (2004, which is incorporated herein by reference) with slight modification (Winter, et al., 2006, which is incorporated herein by reference). Stock solutions of each test drug were prepared in DMSO at a concentration of 20 mM. The drug solutions were serially diluted with culture medium and distributed to asynchronous parasite cultures on 96-well plates in quadruplicate in a total volume of 100 μL to achieve 0.5% parasitemia with a 2% hematocrit in a total volume of 100 pt. The plates were then incubated for 72 h at 37° C. After incubation, 100 μL of lysis buffer with 0.2 μL/mL SYBR Green I was added to each well. The plates were incubated at 37° C. for an hour in the dark and then placed in a 96-well fluorescence plate reader (Spectramax Gemini-EM; Molecular Diagnostics) with excitation and emission wavelengths at 497 nm and 520 nm, respectively, for measurement of fluorescence.
Antimalarial potency of compounds was determined by this technique for both Plasmodium falciparum 3D7 (CQ-sensitive) and Dd2 (multi-drug resistant) strains.

recombinant human BACE1 = recombinant human BACE1 (Homo sapiens, UniProt P56817); test: β-Secretase (BACE1) enzyme inhibition FRET assay; format: biochemical; details: Table 13; read-out: BACE1 IC50
Experimental: The enzymatic inhibition activity assays were determined using the fluorescence resonance energy transfer (FRET) assay. The assays were performed in a 384-well plate format. […] CatD and CatE were activated by incubation in assay buffer (0.1 M NaOAc, 0.2 M NaCl, pH 3.5) at room temperature for 30 min. Subsequently, the rhBACE-1 substrate (R&D Systems, catalog# ES004), the Cathepsin D and Cathepsin E substrate (R&D Systems, Catalog # ES001) were added accordingly to final concentration 20 μM to initiate the reaction. After 60 min incubation at room temperature, the time-resolved fluorescence at Ex/Em=360 nm/460 nm was measured on an EnVision multilabel plate reader (Perkin-Elmer). The analytical software, GraphPad Prism 5.0 (GraphPad Software, Inc., USA) was used to generate IC50 values via non-linear regression analysis, which are reported in Tables 8-13 below as BACE1 IC50 values.

[4] = target: Plasmepsin-2 (PM-2; Plm II) (Plasmodium falciparum (isolate HB3), UniProt P46925); test: Plasmepsin-2 enzyme inhibition assay; format: biochemical; details: Table 13; read-out: PM-2 IC50
How it was run: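 Enzymes activated in pH 4.5 citrate/DTT buffer, then assayed in 50 mM sodium acetate pH 4.7, 0.01% Tween-20. Compounds added before fluorogenic peptide substrate (final 20 µM); 60 min at room temperature, fluorescence Ex/Em 360/535 nm, IC50 by curve fit.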

Plasmepsin V (PM-V) = Plasmepsin V (PM-V) (Plasmodium falciparum (isolate 3D7), UniProt Q8I6Z5); details: known inhibitors, background; cited from earlier work

Plasmepsin-2 (PM-2; Plm II), sequence (P46925 125-453 limits assumed): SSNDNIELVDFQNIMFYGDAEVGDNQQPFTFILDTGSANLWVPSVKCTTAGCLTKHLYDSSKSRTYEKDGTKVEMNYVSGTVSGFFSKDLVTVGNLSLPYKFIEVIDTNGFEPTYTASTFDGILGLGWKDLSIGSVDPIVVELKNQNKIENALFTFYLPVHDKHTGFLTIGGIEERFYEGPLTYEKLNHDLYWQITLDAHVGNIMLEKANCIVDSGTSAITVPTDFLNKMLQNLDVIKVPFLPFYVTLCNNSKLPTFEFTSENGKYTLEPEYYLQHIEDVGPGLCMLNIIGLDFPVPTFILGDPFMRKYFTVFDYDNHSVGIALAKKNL
recombinant human BACE1, sequence (P56817 46-501 limits assumed): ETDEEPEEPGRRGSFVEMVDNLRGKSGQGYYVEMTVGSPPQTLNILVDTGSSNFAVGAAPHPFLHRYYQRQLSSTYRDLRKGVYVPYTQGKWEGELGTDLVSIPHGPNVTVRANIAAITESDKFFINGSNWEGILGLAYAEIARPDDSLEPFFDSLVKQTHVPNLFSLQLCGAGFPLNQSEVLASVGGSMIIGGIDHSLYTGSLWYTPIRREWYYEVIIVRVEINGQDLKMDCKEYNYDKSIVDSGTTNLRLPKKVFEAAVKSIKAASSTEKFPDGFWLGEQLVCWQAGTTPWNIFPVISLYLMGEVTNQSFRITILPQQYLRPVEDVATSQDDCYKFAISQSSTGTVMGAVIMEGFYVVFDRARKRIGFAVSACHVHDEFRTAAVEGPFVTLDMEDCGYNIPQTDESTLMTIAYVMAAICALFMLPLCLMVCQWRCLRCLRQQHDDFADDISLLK

CCN(CC)CCCC(C)Nc1ccnc2cc(Cl)ccc12 (centres unmarked) [CQ, chloroquine, reference compound]
% Inhibition of parasitemia [1]: 99.99%

COc1ccc(C2(c3ccc(OC)cc3)NC(=N)N(CC3CCCCC3)C2=O)cc1 [Example 221, 3-(cyclohexylmethyl)-2-imino-5,5-bis(4-methoxyphenyl)-imidazolidin-4-one]
IC50 ([2]; 3D7, read-out: 3D7 IC50 (μM), Table 13): 0.207 µM
IC50 ([2]; 3D7, read-out: Pf3D7 IC50 (μM), Table 10): 0.383 µM
IC50 [3]: 0.367 µM
IC50 (recombinant human BACE1): 6010 nM
IC50 [4]: 2.39 nM

Cc1cccc(C)c1OCC(=O)N[C@@H](Cc1ccccc1)[C@@H](O)C[C@H](Cc1ccccc1)NC(=O)[C@H](C(C)C)N1CCCNC1=O [lopinavir]
IC50 (Plasmepsin V (PM-V)): > 20000 nM

CC(C)CC(=O)N[C@H](C(=O)N[C@H](C(=O)N[C@@H](CC(C)C)[C@@H](O)CC(=O)N[C@@H](C)C(=O)N[C@@H](CC(C)C)[C@@H](O)CC(=O)O)C(C)C)C(C)C [pepstatin A] (Isovaleryl-VV[Sta]A[Sta]-OH)
IC50 (Plasmepsin V (PM-V)): > 20000 nM
